Data taken from BindingDB's records for PubMed 9454790 (University of Arizona, 1998).

Legend:
[1] = target: T1, Muscarinic acetylcholine receptor M2 (Homo sapiens, UniProt P08172)
T1 sequence (P08172 whole entry): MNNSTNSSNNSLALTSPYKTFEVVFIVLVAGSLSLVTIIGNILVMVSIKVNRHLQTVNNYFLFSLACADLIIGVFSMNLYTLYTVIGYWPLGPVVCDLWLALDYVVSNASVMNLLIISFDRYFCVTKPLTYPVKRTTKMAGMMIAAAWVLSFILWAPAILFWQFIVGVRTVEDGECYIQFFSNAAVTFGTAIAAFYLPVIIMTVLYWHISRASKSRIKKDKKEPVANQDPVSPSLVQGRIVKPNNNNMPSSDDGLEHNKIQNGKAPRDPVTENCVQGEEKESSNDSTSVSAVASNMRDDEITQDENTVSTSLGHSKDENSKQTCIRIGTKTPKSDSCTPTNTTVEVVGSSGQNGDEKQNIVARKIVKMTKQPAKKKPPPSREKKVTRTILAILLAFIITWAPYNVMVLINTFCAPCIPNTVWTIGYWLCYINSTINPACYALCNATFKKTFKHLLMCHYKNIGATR

[2] = target: T2, Muscarinic acetylcholine receptor M2 (Rattus norvegicus, UniProt P10980)
T2 sequence (P10980 whole entry): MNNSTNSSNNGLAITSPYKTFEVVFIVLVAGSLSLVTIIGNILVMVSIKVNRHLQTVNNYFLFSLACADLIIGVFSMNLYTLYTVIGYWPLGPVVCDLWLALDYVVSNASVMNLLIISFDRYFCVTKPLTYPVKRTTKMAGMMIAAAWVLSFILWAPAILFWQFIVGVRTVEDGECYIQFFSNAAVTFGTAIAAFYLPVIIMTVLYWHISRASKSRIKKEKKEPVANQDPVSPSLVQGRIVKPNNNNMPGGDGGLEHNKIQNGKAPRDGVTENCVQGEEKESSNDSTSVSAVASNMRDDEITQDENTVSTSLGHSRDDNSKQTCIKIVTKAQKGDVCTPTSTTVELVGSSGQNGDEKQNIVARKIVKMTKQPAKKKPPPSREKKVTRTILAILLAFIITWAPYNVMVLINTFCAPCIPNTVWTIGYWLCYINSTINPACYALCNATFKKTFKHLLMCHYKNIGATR

Compound | Ki [1] | Ki [2]
O=C1CCCN1CC#CCN1CCCC1 [1-[4-(2-oxo-pyrrolidin-1-yl)-but-2-ynyl]-pyrrolidinium] | 235 nM | 290 nM
C[N+]1(C)CCO[C@@](O)(c2ccc(-c3ccc([C@@]4(O)C[N+](C)(C)CCO4)cc3)cc2)C1 [CAS_312-45-8] | 11 nM | –
C[N+](C)(C)CCCCCCCCCC[N+](C)(C)C [Decamethonium Iodide] | 25 nM | –
COc1cc2c3cc1Oc1cc(ccc1O)C[C@H]1c4c(cc(OC)c(O)c4Oc4ccc(cc4)C[C@@H]3N(C)CC2)CC[N+]1(C)C [CAS_57-94-3] | 97 nM | –
CN(C)CCCN1c2ccccc2CCc2ccccc21 | 0.13 nM | –
CC[N+](CC)(CC)CCOc1cccc(OCC[N+](CC)(CC)CC)c1OCC[N+](CC)(CC)CC | – | 2610 nM
C[C@H]1OC(=O)C2C[C@H]3CCCC[C@@H]3[C@@H](/C=C/[C@@H]3CCC[C@H](C)N3C)C21 (some centres not stated) [HIMBACINE] | 12 nM | 14 nM
CCN(CC)CC1CCCCN1CC(=O)N1c2ccccc2C(=O)Nc2cccnc21 (configuration not stated) [(AF-DX 116) 11-[2-(2-Diethylaminomethyl-piperidin-1-yl)-acetyl]-5,11-dihydro-benzo[e]pyrido[3,2-b][1,4]diazepin-6-one] | 67 nM | 50 nM
C=C[C@@H]1CN2CC[C@H]1C[C@@H]2[C@H](O)c1ccnc2ccc(OC)cc12 [Quinidine] | 7.5 nM | –
